In ChEMBL document CHEMBL1201862, “PubChem BioAssay data set” (2004):
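Method: 48-hour compound exposure of cells in 96-well plates, five concentrations, linear interpolation of endpoints. GI50: concentration for 50% inhibition of growth.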 Activity calls are given as the source filed them. Rule as the data show it: active = GI50 up to about 1.1 µM and inactive = higher.

Columns and labels:
Assay in all cases: NCI anticancer screen, dose series, 48 h
Malme-3M = test system: Malme-3M
SN12C = test system: SN12C
SK-OV-3 = test system: SK-OV-3
OVCAR-4 = test system: OVCAR-4
SK-MEL-28 = test system: SK-MEL-28
NCI-H460 = test system: NCI-H460
HOP-92 = test system: HOP-92
IGROV-1 = test system: IGROV-1
EKVX = test system: EKVX
M14 = test system: M14
NCI-H522 = test system: NCI-H522
A498 = test system: A498
CAKI-1 = test system: CAKI-1
DU-145 = test system: DU-145
T47D = test system: T47D
HCC 2998 = test system: HCC 2998
LOX IMVI = test system: LOX IMVI
CCRF-CEM = test system: CCRF-CEM
SR = test system: SR
SF-295 = test system: SF-295

Measured: GI50

CC(=O)Nc1ccc(S(=O)(=O)N=S(C)C)cc1
inactive: Malme-3M > 100 µM | SN12C > 100 µM | SK-OV-3 > 100 µM | OVCAR-4 > 100 µM | SK-MEL-28 > 100 µM | NCI-H460 > 100 µM | HOP-92 > 100 µM | IGROV-1 > 100 µM | EKVX > 100 µM | M14 > 100 µM | NCI-H522 > 100 µM | A498 > 100 µM | CAKI-1 > 100 µM | DU-145 > 100 µM | T47D > 100 µM | HCC 2998 > 100 µM | LOX IMVI > 100 µM | CCRF-CEM > 100 µM | SR > 100 µM | SF-295 > 100 µM

COc1nc(N)c(N=O)c(OCc2ccccc2)n1
inactive: Malme-3M 3.12 µM | SN12C 7.59 µM | SK-OV-3 > 10 µM | OVCAR-4 3.61 µM | SK-MEL-28 > 10 µM | NCI-H460 9.29 µM | HOP-92 > 10 µM | IGROV-1 > 10 µM | EKVX 2.64 µM | M14 4.84 µM | NCI-H522 1.71 µM | A498 > 10 µM | CAKI-1 3.51 µM | DU-145 > 10 µM | T47D 2.76 µM | HCC 2998 > 10 µM | LOX IMVI 4.19 µM | CCRF-CEM 2.31 µM | SR 4.84 µM | SF-295 > 10 µM

COc1ccc(NC(=O)C(C#N)=C(SC)SC)cc1
inactive: Malme-3M > 100 µM | SN12C > 100 µM | SK-OV-3 > 100 µM | OVCAR-4 > 100 µM | SK-MEL-28 > 100 µM | NCI-H460 > 100 µM | HOP-92 15.8 µM | IGROV-1 58.6 µM | EKVX > 100 µM | M14 > 100 µM | NCI-H522 57.1 µM | A498 > 100 µM | CAKI-1 50.5 µM | DU-145 > 100 µM | T47D > 100 µM | HCC 2998 > 100 µM | LOX IMVI > 100 µM | CCRF-CEM > 100 µM | SR > 100 µM | SF-295 > 100 µM

CC1=C(C(=O)NC2CCCCC2)CC(C(=O)NC2CCCCC2)=C(C)N1
inactive: Malme-3M > 100 µM | SN12C > 100 µM | SK-OV-3 > 100 µM | OVCAR-4 > 100 µM | SK-MEL-28 > 100 µM | NCI-H460 > 100 µM | HOP-92 33 µM | IGROV-1 > 100 µM | EKVX > 100 µM | M14 > 100 µM | NCI-H522 > 100 µM | A498 65.9 µM | CAKI-1 > 100 µM | DU-145 > 100 µM | T47D 58.6 µM | HCC 2998 > 100 µM | LOX IMVI > 100 µM | CCRF-CEM > 100 µM | SR > 100 µM | SF-295 > 100 µM

N#CC(C#N)=C1C(C#N)=C(N)NC12OCCO2
inactive: Malme-3M > 100 µM | SN12C > 100 µM | SK-OV-3 > 100 µM | OVCAR-4 > 100 µM | SK-MEL-28 > 100 µM | NCI-H460 > 100 µM | HOP-92 > 100 µM | IGROV-1 > 100 µM | EKVX > 100 µM | M14 > 100 µM | NCI-H522 > 100 µM | A498 > 100 µM | CAKI-1 > 100 µM | DU-145 > 100 µM | T47D > 100 µM | HCC 2998 > 100 µM | LOX IMVI > 100 µM | CCRF-CEM > 100 µM | SR > 100 µM | SF-295 > 100 µM

O=C1C(=O)c2c(oc(=O)c3ccccc23)-c2ccccc21
inactive: Malme-3M 8.93 µM | SN12C 14.5 µM | SK-OV-3 > 25 µM | OVCAR-4 6.5 µM | SK-MEL-28 > 25 µM | NCI-H460 > 25 µM | HOP-92 15.3 µM | IGROV-1 > 25 µM | EKVX > 25 µM | M14 > 25 µM | NCI-H522 21.2 µM | A498 > 25 µM | CAKI-1 > 25 µM | DU-145 > 25 µM | T47D > 25 µM | HCC 2998 13.9 µM | LOX IMVI 16.9 µM | CCRF-CEM > 25 µM | SR > 25 µM | SF-295 > 25 µM

COC(=O)CCc1cc(O)c2c(c1)C(C(=O)OC)C(c1ccc(O)c(O)c1)O2 (stereo not given)
inactive: Malme-3M 6.97 µM | SN12C 21.9 µM | SK-OV-3 33.6 µM | OVCAR-4 > 58.7 µM | SK-MEL-28 8.93 µM | NCI-H460 22.9 µM | HOP-92 44 µM | IGROV-1 12.1 µM | EKVX 34.4 µM | M14 13.9 µM | NCI-H522 12.6 µM | A498 > 44.9 µM | CAKI-1 26.6 µM | DU-145 > 41.9 µM | T47D 6.37 µM | HCC 2998 5.02 µM | LOX IMVI 8.04 µM | CCRF-CEM 3.21 µM | SR 3.45 µM | SF-295 17.7 µM

CC1=NN(C(=O)CC(=O)Nc2cccc(C)c2)C(=O)C1/N=N/c1ccc(S(=O)(=O)CCOS(=O)(=O)O)cc1 (stereo not given)
inactive: OVCAR-4 9.42 µM | SK-MEL-28 3.9 µM | NCI-H460 3.24 µM | HOP-92 2.25 µM | EKVX 32.2 µM | A498 11.5 µM | DU-145 32.3 µM | T47D > 34.5 µM | HCC 2998 2.17 µM | SF-295 2.82 µM
active: Malme-3M 0.839 µM | SN12C 0.471 µM | SK-OV-3 0.326 µM | IGROV-1 0.63 µM | M14 0.484 µM | NCI-H522 0.291 µM | CAKI-1 0.546 µM | LOX IMVI 0.345 µM | CCRF-CEM 0.422 µM | SR 0.49 µM

CC1(C)N=C(N)N=C(N)N1c1ccc(CCCCc2ccc(S(=O)(=O)F)cc2Cl)c(Cl)c1
inactive: Malme-3M 4.05 µM | SN12C 1.16 µM | SK-OV-3 106 µM | OVCAR-4 37.2 µM | SK-MEL-28 4.93 µM | HOP-92 4.18 µM | EKVX 36.2 µM | M14 1.63 µM | NCI-H522 4.68 µM | A498 37.2 µM | CAKI-1 9.55 µM | DU-145 2.85 µM | T47D 10.5 µM | HCC 2998 5.04 µM | LOX IMVI 1.75 µM | CCRF-CEM 1.62 µM | SF-295 1.84 µM
active: NCI-H460 0.266 µM | IGROV-1 0.39 µM | SR 0.207 µM

CN(C)c1ccc(C2SCC(=O)N2c2nc3cc4sc(N5C(=O)CSC5c5ccc(N(C)C)cc5)nc4cc3s2)cc1 (stereo not given)
inactive: Malme-3M > 100 µM | SN12C > 20.5 µM | SK-OV-3 85.7 µM | OVCAR-4 32.9 µM | SK-MEL-28 > 72.8 µM | NCI-H460 1.53 µM | HOP-92 > 60.5 µM | IGROV-1 29.3 µM | EKVX 54.1 µM | M14 51.3 µM | NCI-H522 3.76 µM | A498 27.9 µM | CAKI-1 8.49 µM | DU-145 13.2 µM | T47D 31.6 µM | HCC 2998 > 100 µM | LOX IMVI 43.9 µM | CCRF-CEM 3.41 µM | SR 6.62 µM | SF-295 46.6 µM

CCCC(=O)Oc1c2ccsc2c(OC(=O)CCC)c2ccsc12
active: Malme-3M 0.359 µM | SN12C 1.11 µM | SK-OV-3 0.75 µM | SK-MEL-28 0.951 µM | NCI-H460 1.05 µM | HOP-92 1.1 µM | DU-145 0.857 µM | LOX IMVI 0.594 µM | SR 0.444 µM | SF-295 0.457 µM
inactive: OVCAR-4 2.94 µM | IGROV-1 4.18 µM | EKVX 2.27 µM | M14 1.57 µM | NCI-H522 2.26 µM | A498 4.6 µM | CAKI-1 5.55 µM | T47D 6.37 µM | HCC 2998 4.14 µM | CCRF-CEM 1.54 µM

CC(C)/C(=N\[N+](C)(C)C)c1ccccc1
inactive: Malme-3M > 100 µM | SN12C > 100 µM | SK-OV-3 > 100 µM | OVCAR-4 > 100 µM | SK-MEL-28 > 100 µM | NCI-H460 > 100 µM | HOP-92 69.3 µM | IGROV-1 > 100 µM | EKVX > 100 µM | M14 > 100 µM | NCI-H522 > 100 µM | A498 > 100 µM | CAKI-1 > 100 µM | DU-145 > 100 µM | T47D > 100 µM | HCC 2998 > 100 µM | LOX IMVI > 100 µM | CCRF-CEM > 100 µM | SR > 100 µM | SF-295 > 100 µM

NC(=O)c1[nH]nc(C2OC(CO)C(O)C2O)c1O (stereo not given)
inactive: Malme-3M 368 µM | SN12C 3.18 µM | SK-OV-3 84.3 µM | OVCAR-4 24.7 µM | SK-MEL-28 328 µM | HOP-92 30.5 µM | EKVX 52.6 µM | M14 95.3 µM | NCI-H522 37.2 µM | A498 60.5 µM | T47D 5.55 µM | HCC 2998 42.5 µM
active: NCI-H460 0.573 µM | IGROV-1 0.776 µM | CAKI-1 0.689 µM | DU-145 0.5 µM | LOX IMVI 0.504 µM | CCRF-CEM 0.507 µM | SR 0.5 µM | SF-295 0.851 µM
